In US10772858B2, “Benzhydrol derivatives for the management of conditions related to hypoxia inducible factors” (GEORGIA STATE UNIVERSITY RESEARCH FOUNDATION, priority 2015, dated 2020):

Tested on: LN229HRE-luc/lacZ cells (VEGF HRE, HIF-1 target)
Experiment: Inhibition of hypoxia-inducible gene expression driven by HRE-reporter construct (firefly luciferase) in glioma cells
Format: cell-based
Settings: Homo sapiens, Glioma cell; firefly luciferase activity in LN229HRE-luc/LacZ cells, 1 hour pretreatment under normoxia, then hypoxia (1% O2); from dose-response curves
Procedure: Inhibition of Hypoxia-Inducible Gene Expression Driven by Exogenous HRE-Reporter Constructs in Glioma Cells
LN229HRE-luc/lacZ cells were generated by stably transfecting human LN229 glioma cells with a bidirectional reporter construct (pBIGL-V6R) in which the firefly luciferase and LacZ reporter genes are under the control of 6 head to tail tandem copies of the VEGF HRE (hypoxia-responsive element—endogenous HIF-1 target gene) in rightward orientation (clone LN229V6R#18; Hygro selection […]) as reported in Yin et al. Clinical Cancer Research, 2012, 1-11.
Cells were pretreated with different doses of test compounds or 1% DMSO (final concentration in media) vehicle control for 1 hour under normoxia (21% O2); then incubation continued under normoxia or hypoxia (1% O2) using a hypoxia incubator (Thermo Forma model 3130). Firefly luciferase activities in lysates of LN229HRE-luc/LacZ cells were measured with a Dual-Luciferase Reporter Assay System (Promega) in a 20/20 n Luminometer (Promega). The IC50 (μM) value for each individual compound was established from the dose-response curves.

| SMILES | IC50 |
| --- | --- |
| COc1ccc(C(O)c2ccc(COc3cccnc3)cn2)cc1OC (centres unmarked) [3e] | > 5 µM |
| COc1ccc(C(O)c2ccc(COC3CCCCC3)cc2)c(OC)c1 (centres unmarked) [3h] | 0.68 µM |
| CCCCOCc1ccc(C(O)c2ccc(OC)c(OC)c2)cc1 (centres unmarked) [3i, (4-(Butoxymethyl)phenyl)(3,4-dimethoxyphenyl)methanol] | 0.5 µM |
| CCCCOCc1ccc(C(O)c2ccc(OC)cc2OC)cc1 (centres unmarked) [3j] | 0.63 µM |
| CCOCc1ccc(C(O)c2ccc(OC)cc2)cc1 (centres unmarked) [3l] | > 5 µM |
| COc1ccc(C(O)c2ccc(COC3CCN(C(=O)OC(C)(C)C)CC3)cc2)cc1OC (centres unmarked) [3o] | 0.89 µM |
| CCCOCc1ccc(C(O)c2ccc(OC)c(OCc3ccccc3)c2)cc1 (centres unmarked) [3p] | > 5 µM |
| CCCCOCc1ccc(C(O)c2cccc(OCc3ccccc3)c2)cc1 (centres unmarked) [3q] | > 5 µM |
| CCCOCc1ccc(C(O)c2ccc(OCOC)cc2)cc1 (centres unmarked) [3r] | > 5 µM |
| CCCOCc1ccc(C(O)c2ccc(OC)c(OCOC)c2)cc1 (centres unmarked) [3u] | > 5 µM |
| CCCOCc1ccc(C(O)c2ccc(OC)c(OCCC)c2)cc1 (centres unmarked) [3v] | 5 µM |
| CCCOCc1ccc(C(O)c2ccc(OCc3ccccc3)c(OCC)c2)cc1 (centres unmarked) [3w] | > 5 µM |
| COc1ccc(C(O)c2cccc(COC3CCN(C(=O)OC(C)(C)C)CC3)c2)c(OC)c1 (centres unmarked) [6c] | 0.55 µM |
| OC(c1ccccc1)c1cccc(COc2cccc3ccccc23)c1 (centres unmarked) [6d] | > 5 µM |
| COc1ccc(C(O)c2cccc(COc3cccc4ccccc34)c2)cc1OC (centres unmarked) [6e] | 1.83 µM |
| CCOCc1cccc(C(O)c2ccc(OC)cc2)c1 (centres unmarked) [6f] | > 5 µM |

| SMILES | IC50 |
| --- | --- |
| CCCCOCc1cccc(C(O)c2ccc(OC)cc2)c1 (centres unmarked) [6g] | > 5 µM |
| CCCCOCc1cccc(C(O)c2ccc(OC)cc2OC)c1 (centres unmarked) [6h] | 0.48 µM |
| CCCOCc1cccc(C(O)c2ccc(OC)cc2OC)c1 (centres unmarked) [6i] | 5 µM |
| CCCCOc1cccc(C(O)c2cccc(COCCC)c2)c1 (centres unmarked) [6k] | 3.8 µM |
| CCCCOCc1cccc(C(O)c2ccc(OC)c(OCc3ccccc3)c2)c1 (centres unmarked) [6l] | 2.98 µM |
| CCCCOCc1cccc(C(O)c2cccc(OCc3ccccc3)c2)c1 (centres unmarked) [6m] | > 5 µM |
| CCCCOCc1cccc(C(O)c2ccc(OC)c(OCCCC)c2)c1 (centres unmarked) [6o] | 1 µM |
| CCCCOCc1cccc(C(O)c2ccc(OCc3ccccc3)c(OCC)c2)c1 (centres unmarked) [6p] | 0.62 µM |
| CCCCOCc1ccccc1C(O)c1ccc(OC)c(OCc2ccccc2)c1 (centres unmarked) [9b] | > 5 µM |
| CCCCOCc1cccc(C(O)c2cccc(OCOC)c2)c1 (centres unmarked) [9c] | > 5 µM |
| CCCCOCc1cccc(C(O)c2cccc(OCCCC)c2)c1 (centres unmarked) [9d] | > 5 µM |
| COc1ccc(C(O)c2ccc(OCCC3CCN(C(=O)OC(C)(C)C)CC3)cc2)cc1OC (centres unmarked) [14c] | 0.33 µM |
| CCCCOc1ccc(C(O)c2ccc(OC)cc2OC)nc1 (centres unmarked) [15b] | > 5 µM |
| COc1ccc(C(O)c2ccc(OC(C)C)cn2)c(OC)c1 (centres unmarked) [15d] | > 5 µM |
| COc1cccc(C(O)c2ccc3c(c2)C=CC(C)(C)O3)c1 (centres unmarked) [26b] | > 5 µM |
| COc1ccc(C(O)c2ccc3sc(C)cc3c2)c(OC)c1 (centres unmarked) [29f] | > 5 µM |

Results, then the molecule that gave them:

| IC50 | SMILES |
| --- | --- |
| 0.3 µM | COc1ccc(C(O)c2ccc(CO[C@H]3CCOC3)cc2)cc1OC (stereo partly drawn) [3a, (3,4-Dimethoxyphenyl)(4-((((S)-tetrahydrofuran-3-yl)oxy)methyl)phenyl)methanol] |
| 3.4 µM | COc1ccc(C(O)c2ccc(CO[C@@H]3CCOC3)cc2)cc1OC (some centres unmarked) [3b] |
| 3.4 µM | COc1ccc(C(O)c2ccc(COC3CCOC3)cc2)cc1OC (centres unmarked) [3c] |
| > 5 µM | COc1ccc(C(O)c2ccc(CO[C@H]3CCOC3)cn2)cc1OC (some centres unmarked) [3d] |
| > 5 µM | COc1ccc([C@H](O)c2ccc(COC3CCOC3)cc2)cc1OC (some centres unmarked) [3f] |
| 0.4 µM | COc1ccc(C(O)c2ccc(COC3CCCCC3)cc2)cc1OC (centres unmarked) [3g] |
| > 5 µM | CCOCc1ccc(C(O)c2ccc(OC)c(OC)c2)cc1 (centres unmarked) [3k] |
| 0.3 µM | CCCOCc1ccc(C(O)c2ccc(OC)c(OC)c2)cc1 (centres unmarked) [3m] |
| > 5 µM | COc1ccc(C(O)c2ccc(COC(C)C)cc2)cc1OC (centres unmarked) [3n] |
| > 5 µM | COc1ccc(C(O)c2ccc(COC3CN(C(=O)OC(C)(C)C)C3)cc2)cc1OC (centres unmarked) [3s] |
| > 5 µM | COc1ccc(C(O)c2ccc(CO[C@@H]3CCN(C(=O)OC(C)(C)C)C3)cc2)cc1OC (some centres unmarked) [3t] |
| 1 µM | COc1ccc(C(O)c2cccc(COc3ccccc3)c2)cc1OC (centres unmarked) [6a] |
| 0.2 µM | COc1ccc(C(O)c2cccc(COC3CCN(C(=O)OC(C)(C)C)CC3)c2)cc1OC (centres unmarked) [6b, Tert-butyl 4-((3-((3,4-dimethoxyphenyl)(hydroxy)methyl)benzyl)oxy)piperidine-1-carboxylate] |
| 2.45 µM | CCCCOCc1cccc(C(O)c2ccc(OC)c(OC)c2)c1 (centres unmarked) [6j] |
| 0.75 µM | CCCCOCc1cccc(C(O)c2ccc(OC)c(OCOC)c2)c1 (centres unmarked) [6n] |
| > 5 µM | CCCOCc1ccccc1C(O)c1ccc(OC)c(OC)c1 (centres unmarked) [9a] |
| > 5 µM | C=CCOc1ccc(C(O)c2ccc(OC)c(OC)c2)cc1 (centres unmarked) [14a] |
| 1.9 µM | CCCCCOc1ccc(C(O)c2ccc(OC)c(OC)c2)cc1 (centres unmarked) [14b] |
| > 5 µM | COc1ccc(C(O)c2ccc(OCc3cnco3)cn2)cc1OC (centres unmarked) [14d] |
| > 5 µM | CCCCOc1ccc(C(O)c2ccc(OC)c(OC)c2)nc1 (centres unmarked) [15a] |
| > 5 µM | COc1ccc(C(O)c2ccc(OC(C)C)cn2)cc1OC (centres unmarked) [15c] |
| > 5 µM | COc1ccc(C(O)c2ccc(CN3CCOCC3)cn2)cc1OC (centres unmarked) [21a] |
| 1.49 µM | COc1ccc(C(O)c2ccc(CN3CCN(C(=O)OC(C)(C)C)CC3)cc2)cc1OC (centres unmarked) [21b] |

| IC50 | SMILES |
| --- | --- |
| 1 µM | COc1ccc(C(O)c2ccc(CBr)cc2)cc1OC (centres unmarked) [21c] |
| 2.2 µM | COc1ccc(C(O)c2ccccc2)cc1OC (centres unmarked) [24a] |
| > 5 µM | COc1ccc(C(O)c2ccc(OC)c(OC)c2)cc1OC [24b] |
| > 5 µM | COc1ccc(OC)c(C(O)c2ccc(OC)c(OC)c2)c1 (centres unmarked) [24c] |
| > 5 µM | COc1ccc(C(O)c2ccc(N3CCN(C)CC3)cc2)cc1OC (centres unmarked) [24d] |
| 5 µM | COc1ccc(C(O)c2ccc(C3CCCO3)cc2)cc1OC (centres unmarked) [24e] |
| > 5 µM | COc1ccc(C(O)c2ccc(-c3ccccc3)cc2)cc1OC (centres unmarked) [24f] |
| 0.6 µM | COc1ccc(C(O)c2ccc3c(c2)C=CC(C)(C)O3)cc1OC (centres unmarked) [26a] |
| 3.1 µM | COc1ccc(C(O)c2cc3c(c(OC)c2)OC(C)(C)C=C3)cc1OC (centres unmarked) [26c] |
| 2.25 µM | COc1ccc(C(O)c2ccc3c(n2)C=CC(C)(C)O3)cc1OC (centres unmarked) [26d] |
| 4.2 µM | COc1ccc(C(O)c2cc3c(c(OC)c2)OC(C)(C)CC3)cc1OC (centres unmarked) [27c] |
| 2.3 µM | COc1ccc(C(O)c2ccc3c(n2)CCC(C)(C)O3)cc1OC (centres unmarked) [27d] |
| > 5 µM | COc1ccc(C(O)c2ccc3c(c2)CCO3)cc1OC (centres unmarked) [29a] |
| > 5 µM | COc1ccc(C(O)c2ccc3c(c2)OCCN3C)cc1OC (centres unmarked) [29b] |
| 1.2 µM | COc1ccc(C(O)c2ccc3ccccc3c2)cc1OC (centres unmarked) [29c] |
| 4.18 µM | COc1ccc(C(O)c2ccc3c(c2)OCCO3)cc1OC (centres unmarked) [29d] |
| 1.03 µM | COc1ccc(C(O)c2ccc3sc(C)cc3c2)cc1OC (centres unmarked) [29e] |
| 1.8 µM | CCCCCCOc1ccc2cc(C(O)c3ccc(OC)c(OC)c3)ccc2c1 (centres unmarked) [32a] |
| 2.95 µM | CCCOc1ccc2cc(C(O)c3ccc(OC)c(OC)c3)ccc2c1 (centres unmarked) [32b] |
| 3.33 µM | CCCCOc1ccc2cc(C(O)c3ccc(OC)c(OC)c3)ccc2c1 (centres unmarked) [32c] |
| 2.62 µM | COc1ccc(C(O)c2ccc3cc(OC(C)C)ccc3c2)cc1OC (centres unmarked) [32d] |
| 4.2 µM | COc1ccc(C(O)c2ccc(OC3CCOC3)cc2OC)cc1OC (centres unmarked) [35a] |
